# “Also recorded” adds a separate entry of the source.
# Tests used:
# [1] = tested on: ARPE-19 cells; experiment: VEGF-induced deterioration of trans-epithelial resistance (TER) in ARPE19 monolayers; format: cell-based, human; conditions: ARPE19 monolayers pre-treated with the ACT peptide
# Source text: Thus, while not wishing to be bound by theory, stabilizing the tight junction proteins with the ACT peptide can prevent loss of tight-junction disintegration and thus damage to RPE/Bruch's membrane.
# [2] = tested on: porcine kidney; experiment: Porcine kidney model of cold ischemia (Cx43, nitrotyrosine, apoptosis staining); set-up: species or system pig
# Method: These studies were conducted using kidneys procured from 2 standard criteria donor pigs. The organs were flushed via the aorta with preservation solution after 10 minutes of warm ischemia post-mortem. Biopsies were taken prior to treatment. The kidneys were then flushed with either cold Belzer's solution (control) or the same solution containing 100 μm ACT1 peptide, and stored in the respective solutions on ice for 24 h. Biopsies were taken at regular intervals and sections were stained for Cx43 and nitrotyrosine.
# [3] = tested on: mouse cardiac endothelial cells; experiment: In vitro cold storage and reperfusion injury model, endothelial cells; format: cell-based; conditions: for IL-8 secretion, endothelial cells (Elisa): UW solution supplemented with ACT1 peptide
# Method: These studies were conducted using a modification of the in vitro donor cold storage and reperfusion injury model (Casiraghi et al., 2009). Human umbilical vein endothelial cells (HUVECs) and mouse microvascular endothelial cells were grown to confluence on transwells and transendothelial resistance (TEER) was recorded. To model cold ischemia and reperfusion injury growth, media was removed from the cells and replaced with either ice cold UW solution or UW solution containing ACT1 peptide, and cultures were exposed to 6 h of hypoxia in a hypoxic chamber (Billups-Rothenberg, Del Mar, Calif.) at 4° C. Following hypoxic exposure, UW solution was removed, and to stimulate reperfusion, UW solution was replaced with fresh pre-warmed (37° C.) culture media, and cells were monitored for 24 h. TEER was measured at three time points post reperfusion as a marker of endothelial/epithelial cell death and dysfunction. A loss of […], as measured by TEER, across the cellular monolayer is associated with a loss of cell-cell communication (thus, gap junction and tight junction injury), cell injury, and a leaky endothelial cell lining. In vivo, this would translate as dysfunction of the cell layer and facilitate uncontrolled fluid trafficking, loss of vascular tone, reduced barrier function that would facilitate immune cell infiltration.
# [4] = tested on: human respiratory epithelial cells; experiment: In vitro cold storage and reperfusion injury model, epithelial cells; format: cell-based
# [5] = tested on: Balb/c donor hearts implanted into B6 recipients; experiment: Mouse heterotopic heart allotransplantation model, 48 h post transplantation; format: in vivo
# Method: Heart allograft transplants were performed between Balb/c donors to B6 recipients. Balb/c donor hearts were removed, perfused with UW solution and then static cold stored in either UW solution alone or UW solution supplemented with 100 μM ACT1 peptide for 6 h at 4° C. Following storage, hearts were implanted into B6 recipients using an abdominal heart transplant procedure.
# Heterotopic abdominal heart transplants were performed between Balb/c and C57Bl/6 mice, as previously described (Gao et al., 2014). Donor hearts were cold preserved in UW or UW/ACT1 ([…]) for 6 h at 4° C. Following storage, hearts were then implanted and harvested at 48 h post transplantation to access the impact of ACT1 peptide post-treatment on IRI. Post transplant injury was assessed by analyses of serum Cardiac Troponin I and histological scoring of cardiac graft injury (FIG. 9) and inflammation; neutrophil and macrophage infiltration (FIG. 10), and pro-inflammatory cytokine.
# [6] = tested on: mouse tracheas; experiment: Mouse trachea cold storage histology; conditions: 6 h at 4° C. in PBS+ACT1 peptide vs PBS
# [7] = tested on: HUVECs; experiment: HUVEC H2O2 oxidative injury model; format: cell-based, human; conditions: 200 nM H2O2, ±ACT1 peptide
# Method: (§1) HUVECs were exposed to two experimental conditions to model organ cold storage and reperfusion injuries. Cells were either (A) exposed to 200 nM H2O2 to induce oxidative injury, or (B) exposed to 6 h of cold preservation in UW at 4° C. in hypoxic conditions in the presence or absence of 100 μM ACT1 peptide, followed by 48 h of reperfusion in normal media.
# (§2) HUVECs were exposed to either 18 h of cold storage in UW solution or UW/ACT1 followed by 48 h of reperfusion to model IRI in vitro, as previously described (Atkinson et al., 2013), or H2O2±ACT1 peptide to model oxidative stress. Efficacy was determined by TEER and IL-8 release.
# [8] = tested on: HUVECs; experiment: HUVEC cold preservation, hypoxia and reperfusion model; format: cell-based, human; conditions: 48 h reperfusion
# Method: as §1, §2
# [9] = mouse, in vivo
# Method: Three CD1 mice were anesthetized by IP injection of 0.2 mL Salazine/ketamine. 10 μL of 1 mM ACT1 peptide dissolved in a solution containing normal saline and 0.05% Brij-78 was gently dripped onto the corneal surface of both eyes and allowed to permeate for 20 or 40 min. 0.05% Brij-78 in normal saline was used on a control mouse. The mice were sacrificed in a CO2 chamber and cervically dislocated at 20, 40 min (the control mouse sacrificed at 20 min). The eyes were removed and rinsed in PBS. A small incision was made in the anterior chamber and the aqueous humor (˜10 μL) was transferred to tube and flash frozen in a dry ice ethanol bath. The total sample was dissolved in 2× samples loading buffer and loaded on a 10-20% Tris-Tricine gel. Gel was transferred to a PDVF membrane and stained using RBT Sigma anti-CX43 CT antibody (1:10000) and a goat anti-RBT AP secondary (1:15000) to reveal the ACT1 band at <10 kDa.
# [10] = UW solution with 100 μM ACT1, 6 h hypoxia at 4° C., 4, 8 and 24 h post reperfusion, listed as ACT1 peptide
# [11] = UW + 100 μM ACT1, 6 h at 4° C., 48 h post transplantation, n=6, listed as ACT1 peptide
# [12] = UW/ACT1 (1000 μM) 6 h at 4° C., 48 h, n=3-6
sequence,measurement,setting,value
RQPKIWFPNRRKPWKKRPRPDDLEI [ACT1],VEGF-induced deterioration of TER,[1],prevents VEGF-induced deterioration of TER
same,apoptosis (TUNEL and caspase),"[2]; 100 μM ACT1, cold ischemia 24 h",minimizes mitochondrial oxidant production (nitrotyrosine) and apoptosis (TUNEL and caspase)
same,Cx43 staining (gap junctions),"[2]; 100 μM ACT1 in cold Belzer's solution, up to 24 h cold ischemia, listed as ACT1 peptide",stabilizes gap junctions (Cx43); also recorded: Punctate Cx43 staining in the membrane (gap junctions) were preserved
same,"IL-8 secretion, endothelial cells (Elisa)",[3],significantly reduced pro-inflammatory cytokine (IL-8) release
same,"IL-8 secretion, endothelial cells (Elisa)",[3]; listed as ACT1 peptide,significant reduction in IL-8 secretion
same,"TEER / cellular injury, endothelial cells",[3]; [10],significantly elevated TEER readings; also recorded: significantly reduced cellular injury
same,"IL-8 secretion, epithelial cells",[4]; UW solution supplemented with ACT1 peptide,significant reduction in IL-8 secretion
same,"TEER / cellular injury, epithelial cells",[4]; [10],significantly elevated TEER readings; also recorded: significantly reduced cellular injury
same,Histological injury score (FIG. 6A),[5]; [11],significantly reduced cardiac injury
same,neutrophil infiltration (FIG. 6C),[5]; [11],significantly reduced neutrophil
same,serum cardiac troponin I levels (FIG. 6B),[5]; [11],reduced serum cardiac troponin I; also recorded: significantly reduced
same,"macrophage (Mac-3) infiltration, immunohistochemistry (FIG. 10B)",[5]; [12],significantly reduces post transplant innate immune cell infiltration
same,"neutrophil (Gr-1) infiltration, immunohistochemistry (FIG. 10A)",[5]; [12],significantly reduces post transplant innate immune cell infiltration
same,serum concentration of Cardiac troponin I (FIG. 9B),"[5]; UW/ACT1 (1000 μM) 6 h at 4° C., 48 h post transplantation, n=3-6",significantly reduces post transplantation IRI injury
same,"post transplantation IRI injury, histological grading (FIG. 9A)","[5]; UW/ACT1 (1000 μM) 6 h at 4° C., 48 h post transplantation, n=3-6, listed as ACT1 peptide",significantly reduces ischemic reperfusion induced graft injury and inflammation; also recorded: significantly reduces post transplantation IRI injury
same,trachea histology,[6],preserved trachea histology
same,Trans-endothelial resistance after H2O2 oxidative injury,[7],significantly protects endothelial cells from H2O2 to induce oxidative stress
same,"Trans-endothelial resistance after cold preservation, hypoxia and reperfusion","[8]; 6 h cold preservation in UW at 4° C., hypoxic, 100 μM ACT1","significantly protects endothelial cells from H2O2 to induce oxidative stress, and cold preservation, hypoxic reperfusion injury"
same,"IL-8 secretion after cold preservation, hypoxia and reperfusion",[8]; UW ± 100 μM ACT1,rendered less pro-inflammatory as compared to untreated cells
same,"ACT1 in fluid from the posterior chamber (vitreous humor), Western blot",[9],Lower levels of ACT1 could also be detected
